Common to all, as to test: Large panel kinase profiling
Holding throughout (type): biochemical
What all share (settings): 1 μM test article, 1 mM ATP

In experiment [1] the target is ERN2 (Homo sapiens, UniProt Q76MJ5). The procedure, abridged: (§1)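 Activity is measured in real time from the CSox sensor's fluorescence at 485 nm after 360 nm excitation, sampled every minute. Assays run at 30° C. with 1 mM ATP and a single 1 μM compound dose.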
The target of experiment [2] is PRKAA1/AMPK121 (Homo sapiens, UniProt Q13131). The procedure, abridged: as §1
The target in experiment [3] is T1, CSNK1G1/CK1G1 (Homo sapiens, UniProt Q9HCP0).
T1 construct: AssayQuant Technologies, Inc. (service laboratory)
T1 sequence (Q9HCP0 whole entry): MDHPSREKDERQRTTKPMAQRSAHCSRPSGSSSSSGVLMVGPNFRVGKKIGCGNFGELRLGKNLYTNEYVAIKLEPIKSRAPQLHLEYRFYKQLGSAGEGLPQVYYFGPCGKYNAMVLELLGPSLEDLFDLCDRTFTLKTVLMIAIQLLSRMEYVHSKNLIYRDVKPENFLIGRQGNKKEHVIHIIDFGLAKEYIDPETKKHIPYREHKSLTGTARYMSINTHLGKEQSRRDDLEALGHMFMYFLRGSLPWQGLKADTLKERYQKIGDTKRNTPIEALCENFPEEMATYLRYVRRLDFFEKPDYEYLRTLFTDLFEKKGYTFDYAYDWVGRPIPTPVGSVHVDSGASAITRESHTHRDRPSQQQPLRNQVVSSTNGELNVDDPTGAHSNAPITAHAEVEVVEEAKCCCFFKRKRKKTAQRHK
The procedure, abridged: as §1

Experiment [4] deals with T2, CHUK/IKKA (Homo sapiens, UniProt O15111).
T2 construct: AssayQuant Technologies, Inc. (ran the panel)
T2 sequence (O15111 1-745): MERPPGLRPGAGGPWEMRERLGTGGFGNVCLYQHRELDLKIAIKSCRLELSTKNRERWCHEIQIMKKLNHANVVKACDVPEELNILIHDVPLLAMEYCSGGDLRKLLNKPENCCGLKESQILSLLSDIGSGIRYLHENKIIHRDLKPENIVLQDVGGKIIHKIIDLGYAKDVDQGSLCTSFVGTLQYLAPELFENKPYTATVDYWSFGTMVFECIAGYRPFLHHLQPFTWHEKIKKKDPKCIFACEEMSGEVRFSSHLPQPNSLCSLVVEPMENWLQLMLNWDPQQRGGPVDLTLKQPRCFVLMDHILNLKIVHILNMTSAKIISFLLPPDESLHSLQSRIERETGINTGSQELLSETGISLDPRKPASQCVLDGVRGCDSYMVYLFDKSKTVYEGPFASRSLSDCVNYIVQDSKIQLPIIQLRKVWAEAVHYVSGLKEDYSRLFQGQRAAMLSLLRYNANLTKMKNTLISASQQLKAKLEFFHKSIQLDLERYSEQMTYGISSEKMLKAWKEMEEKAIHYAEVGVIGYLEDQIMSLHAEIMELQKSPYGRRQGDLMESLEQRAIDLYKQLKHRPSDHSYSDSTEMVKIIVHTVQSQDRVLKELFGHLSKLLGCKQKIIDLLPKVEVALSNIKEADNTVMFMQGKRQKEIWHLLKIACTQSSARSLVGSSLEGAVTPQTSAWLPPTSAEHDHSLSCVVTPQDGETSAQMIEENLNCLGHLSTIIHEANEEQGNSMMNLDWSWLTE
The procedure, abridged:
as §1

For experiment [5], the target named is PKN3 (Homo sapiens, UniProt Q6P5Z2). The procedure, abridged: as §1
Experiment [6] deals with T3, CDK1/E1 (Homo sapiens, UniProt P06493).
T3 construct: AssayQuant Technologies, Inc. (ran the panel)
T3 sequence (P06493 whole entry, species assumed): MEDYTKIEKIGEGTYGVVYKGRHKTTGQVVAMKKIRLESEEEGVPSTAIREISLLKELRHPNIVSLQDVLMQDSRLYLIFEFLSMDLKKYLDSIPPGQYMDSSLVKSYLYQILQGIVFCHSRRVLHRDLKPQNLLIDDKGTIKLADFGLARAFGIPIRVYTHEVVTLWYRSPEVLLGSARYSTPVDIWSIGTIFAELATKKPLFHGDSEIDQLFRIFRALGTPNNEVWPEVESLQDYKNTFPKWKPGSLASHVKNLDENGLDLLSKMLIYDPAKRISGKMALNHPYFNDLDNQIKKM
T3 sequence (P24864 whole entry partner, species assumed): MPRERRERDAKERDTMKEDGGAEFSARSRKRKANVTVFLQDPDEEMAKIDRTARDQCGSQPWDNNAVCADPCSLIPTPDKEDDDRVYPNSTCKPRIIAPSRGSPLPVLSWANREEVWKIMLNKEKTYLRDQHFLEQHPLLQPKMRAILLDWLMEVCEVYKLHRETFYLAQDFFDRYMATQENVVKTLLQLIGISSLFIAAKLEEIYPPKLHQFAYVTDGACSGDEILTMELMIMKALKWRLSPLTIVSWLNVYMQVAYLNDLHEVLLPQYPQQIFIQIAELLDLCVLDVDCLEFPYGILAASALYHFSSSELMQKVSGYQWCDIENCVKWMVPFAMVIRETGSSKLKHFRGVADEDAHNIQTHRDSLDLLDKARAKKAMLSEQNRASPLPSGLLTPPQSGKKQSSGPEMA
The procedure, abridged:
as §1

Experiment [7] addresses T4, CLK4 (Homo sapiens, UniProt Q9HAZ1).
T4 construct: AssayQuant Technologies, Inc. (service laboratory)
The procedure, abridged:
as §1

Experiment [8] addresses T5, MET (Homo sapiens, UniProt P08581).
T5 construct: AssayQuant Technologies, Inc. (assay service)
The gist of the method: as §1

Experiment [9] concerns the target T6, CSNK1A1/CK1A1 (Homo sapiens, UniProt P48729).
T6 construct: AssayQuant Technologies, Inc. (service laboratory)
The gist of the method:
as §1

Experiment [10] addresses T7, STK17A/DRAK1 (Homo sapiens, UniProt Q9UEE5).
T7 construct: AssayQuant Technologies, Inc. (contract assay)
T7 sequence (Q9UEE5 1-414): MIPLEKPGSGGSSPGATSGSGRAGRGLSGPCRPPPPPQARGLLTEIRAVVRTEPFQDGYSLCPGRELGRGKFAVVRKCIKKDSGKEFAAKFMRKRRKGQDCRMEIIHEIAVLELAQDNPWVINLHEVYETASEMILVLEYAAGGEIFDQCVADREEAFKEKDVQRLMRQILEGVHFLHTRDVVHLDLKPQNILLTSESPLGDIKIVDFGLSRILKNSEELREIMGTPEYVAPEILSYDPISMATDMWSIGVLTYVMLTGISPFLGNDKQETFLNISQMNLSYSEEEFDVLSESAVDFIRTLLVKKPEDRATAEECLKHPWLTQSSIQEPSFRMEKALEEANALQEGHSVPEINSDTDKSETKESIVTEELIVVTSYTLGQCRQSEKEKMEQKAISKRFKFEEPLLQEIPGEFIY
The gist of the method:
as §1

In experiment [11] the target is T8, MAPK3/ERK1 (Homo sapiens, UniProt P27361).
T8 construct: AssayQuant Technologies, Inc. (service provider)
The procedure, abridged:
as §1

The target in experiment [12] is PRKCB2/PKCB2 (Homo sapiens, UniProt P05771). The procedure, abridged: as §1
Chain of PRKCB2/PKCB2 (P05771 1-673 isoform P05771-2): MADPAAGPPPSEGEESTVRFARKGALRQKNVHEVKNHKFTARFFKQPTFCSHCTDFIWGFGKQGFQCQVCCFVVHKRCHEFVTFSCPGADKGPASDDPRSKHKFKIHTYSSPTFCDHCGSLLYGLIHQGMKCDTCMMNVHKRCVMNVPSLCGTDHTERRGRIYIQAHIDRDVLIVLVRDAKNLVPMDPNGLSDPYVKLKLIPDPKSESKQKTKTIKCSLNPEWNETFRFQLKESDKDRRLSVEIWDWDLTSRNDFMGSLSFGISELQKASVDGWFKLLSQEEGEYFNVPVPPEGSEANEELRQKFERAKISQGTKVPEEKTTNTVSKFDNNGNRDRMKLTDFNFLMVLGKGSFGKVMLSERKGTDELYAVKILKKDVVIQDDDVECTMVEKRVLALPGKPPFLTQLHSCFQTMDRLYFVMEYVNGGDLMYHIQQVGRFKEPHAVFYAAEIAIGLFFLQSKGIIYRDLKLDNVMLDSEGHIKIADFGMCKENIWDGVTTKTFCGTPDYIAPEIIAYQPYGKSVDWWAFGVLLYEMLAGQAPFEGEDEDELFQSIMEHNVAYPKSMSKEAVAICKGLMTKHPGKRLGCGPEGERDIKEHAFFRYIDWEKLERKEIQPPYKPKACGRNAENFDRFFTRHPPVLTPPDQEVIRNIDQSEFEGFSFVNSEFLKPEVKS
Experiment [13] has as its target LCK (Homo sapiens, UniProt P06239). The gist of the method:
as §1

T6 sequence (P48729 whole entry): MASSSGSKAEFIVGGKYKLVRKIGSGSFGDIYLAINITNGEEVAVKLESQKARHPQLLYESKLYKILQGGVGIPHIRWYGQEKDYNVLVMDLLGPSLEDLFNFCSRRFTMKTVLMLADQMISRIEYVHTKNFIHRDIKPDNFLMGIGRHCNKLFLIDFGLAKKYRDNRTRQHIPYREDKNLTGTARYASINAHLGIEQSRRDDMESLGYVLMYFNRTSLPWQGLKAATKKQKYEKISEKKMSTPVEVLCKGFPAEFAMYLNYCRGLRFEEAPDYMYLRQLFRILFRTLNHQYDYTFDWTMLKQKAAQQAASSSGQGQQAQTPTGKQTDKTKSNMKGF
Chain of ERN2 (Q76MJ5 35-926, species assumed): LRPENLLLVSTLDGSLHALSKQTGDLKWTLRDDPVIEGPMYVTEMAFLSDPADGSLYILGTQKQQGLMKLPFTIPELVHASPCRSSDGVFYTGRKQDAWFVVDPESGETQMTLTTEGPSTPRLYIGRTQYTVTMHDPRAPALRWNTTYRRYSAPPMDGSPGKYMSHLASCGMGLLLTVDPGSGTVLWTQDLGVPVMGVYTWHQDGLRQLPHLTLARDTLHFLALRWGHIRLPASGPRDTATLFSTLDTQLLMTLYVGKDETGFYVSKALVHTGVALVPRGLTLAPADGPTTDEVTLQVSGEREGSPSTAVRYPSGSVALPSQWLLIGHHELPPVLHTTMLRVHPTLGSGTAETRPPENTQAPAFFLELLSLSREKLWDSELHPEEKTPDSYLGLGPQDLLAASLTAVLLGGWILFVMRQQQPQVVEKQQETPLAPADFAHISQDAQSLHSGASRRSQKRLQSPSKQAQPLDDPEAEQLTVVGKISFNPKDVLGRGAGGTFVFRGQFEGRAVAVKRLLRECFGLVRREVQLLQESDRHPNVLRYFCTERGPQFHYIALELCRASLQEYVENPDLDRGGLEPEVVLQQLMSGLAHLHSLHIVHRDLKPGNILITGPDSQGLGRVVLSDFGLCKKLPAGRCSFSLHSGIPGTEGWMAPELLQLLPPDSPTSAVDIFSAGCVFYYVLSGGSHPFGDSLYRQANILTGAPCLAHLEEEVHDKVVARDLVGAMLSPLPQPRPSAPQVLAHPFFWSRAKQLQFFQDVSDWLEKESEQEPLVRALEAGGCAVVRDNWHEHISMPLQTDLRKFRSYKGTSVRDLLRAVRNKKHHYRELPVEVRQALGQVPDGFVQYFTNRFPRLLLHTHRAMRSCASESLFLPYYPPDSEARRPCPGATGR
Chain of LCK (P06239 whole entry, species assumed): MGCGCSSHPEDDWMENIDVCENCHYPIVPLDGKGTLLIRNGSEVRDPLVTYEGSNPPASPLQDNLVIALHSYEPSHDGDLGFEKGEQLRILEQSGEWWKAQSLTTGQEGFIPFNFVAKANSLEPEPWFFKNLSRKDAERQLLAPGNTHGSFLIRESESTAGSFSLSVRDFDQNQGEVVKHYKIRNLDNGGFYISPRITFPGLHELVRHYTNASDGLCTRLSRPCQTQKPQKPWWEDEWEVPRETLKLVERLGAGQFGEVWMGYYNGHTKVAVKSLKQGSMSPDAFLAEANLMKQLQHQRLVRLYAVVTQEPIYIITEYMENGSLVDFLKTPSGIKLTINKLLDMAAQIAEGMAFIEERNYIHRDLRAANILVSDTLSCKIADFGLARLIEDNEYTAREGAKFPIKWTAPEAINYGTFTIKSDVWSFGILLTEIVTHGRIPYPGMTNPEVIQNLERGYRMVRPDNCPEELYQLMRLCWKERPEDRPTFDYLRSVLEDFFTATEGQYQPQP
T5 sequence (P08581 25-1390): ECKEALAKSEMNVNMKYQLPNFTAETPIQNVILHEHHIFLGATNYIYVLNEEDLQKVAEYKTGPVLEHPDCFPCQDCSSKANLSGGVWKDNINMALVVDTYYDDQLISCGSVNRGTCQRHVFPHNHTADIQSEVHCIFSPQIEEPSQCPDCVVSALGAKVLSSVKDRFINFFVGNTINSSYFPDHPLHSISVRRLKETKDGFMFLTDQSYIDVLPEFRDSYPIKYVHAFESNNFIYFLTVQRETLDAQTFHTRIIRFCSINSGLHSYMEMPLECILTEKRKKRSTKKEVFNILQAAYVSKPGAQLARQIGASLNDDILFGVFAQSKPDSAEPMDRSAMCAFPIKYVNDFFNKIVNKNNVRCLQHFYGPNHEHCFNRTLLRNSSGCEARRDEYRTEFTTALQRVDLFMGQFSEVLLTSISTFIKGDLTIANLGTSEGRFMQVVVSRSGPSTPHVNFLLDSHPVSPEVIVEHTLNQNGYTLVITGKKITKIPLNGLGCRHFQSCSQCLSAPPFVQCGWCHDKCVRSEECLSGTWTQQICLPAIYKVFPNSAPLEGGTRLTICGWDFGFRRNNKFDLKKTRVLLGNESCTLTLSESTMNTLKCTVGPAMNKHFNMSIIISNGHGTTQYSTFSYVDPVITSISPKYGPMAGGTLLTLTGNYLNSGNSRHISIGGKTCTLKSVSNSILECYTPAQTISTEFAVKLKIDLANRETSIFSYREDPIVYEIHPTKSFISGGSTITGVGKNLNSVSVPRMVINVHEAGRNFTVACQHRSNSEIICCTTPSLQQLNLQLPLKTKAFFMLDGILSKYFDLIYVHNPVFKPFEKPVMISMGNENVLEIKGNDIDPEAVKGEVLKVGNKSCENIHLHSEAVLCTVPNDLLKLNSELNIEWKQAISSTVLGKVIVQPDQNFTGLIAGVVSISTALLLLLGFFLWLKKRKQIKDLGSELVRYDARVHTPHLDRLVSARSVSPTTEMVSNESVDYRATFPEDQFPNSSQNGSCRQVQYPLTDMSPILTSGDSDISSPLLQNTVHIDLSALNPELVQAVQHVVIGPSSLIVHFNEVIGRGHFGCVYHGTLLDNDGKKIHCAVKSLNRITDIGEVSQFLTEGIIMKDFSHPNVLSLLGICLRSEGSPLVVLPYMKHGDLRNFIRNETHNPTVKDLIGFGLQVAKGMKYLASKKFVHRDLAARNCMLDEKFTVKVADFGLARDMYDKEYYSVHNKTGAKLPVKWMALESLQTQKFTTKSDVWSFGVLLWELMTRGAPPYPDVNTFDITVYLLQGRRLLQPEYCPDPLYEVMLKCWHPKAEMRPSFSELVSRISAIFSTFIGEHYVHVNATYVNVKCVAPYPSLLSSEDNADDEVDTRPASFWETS

As to `C=CC(=O)N1CCCC(c2c(F)cc(C(N)=O)c3[nH]c4c(c23)CCCCC4)C1` (single isomer, unassigned) [Compound 5-6], the inhibition (commonly the drop in the measured response relative to a control, in per cent) at 1 µM in experiment [1] is -8%; in [2], -7.9%; in experiment [3] it was 17.2%; in [4] it was 4%; in [5], 5.7%; in experiment [6], -3.6%. Moreover, the inhibition at 1 µM in experiment [7] is 12.3%; in experiment [8] it was 12%; in [9], 9.6%; in experiment [10], 22.4%; in experiment [11], -22.1%; in experiment [12], -32.3%. Moreover, the inhibition at 1 µM in experiment [13] was 0.2%.

For `C=CC(=O)N1CCC[C@@H](c2c(F)cc(C(N)=O)c3[nH]c4c(c23)CC2(CC4)CC2)C1` [Compound 6-2, (S)-5-(1-acryloylpiperidin-3-yl)-6-fluoro-1,2,4,9-tetrahydrospiro[carbazole-3,1′-cyclopropane]-8-carboxamide], the inhibition at 1 µM was -14.6% in experiment [1]; 31.3% in experiment [2]; 14% in experiment [3]; -36.4% in experiment [4]; -9.4% in experiment [5]; -7% in [6]. Further, the inhibition at 1 µM in [7] is 6.5%; in [8], 18.9%; in experiment [9] it was 11.2%; in experiment [10] it was -33.9%; in experiment [11], 22.7%; in experiment [12] it was -9.4%. Also, the inhibition at 1 µM in [13] stood at 15.9%.

For `C=CC(=O)N1CCC[C@@H](c2c(F)cc(C(N)=O)c3[nH]c4c(c23)CCC4)C1` [Compound 10-2, (S)-8-(1-acryloylpiperidin-3-yl)-7-fluoro-1,2,3,4-tetrahydrocyclo-penta[b]indole-5-carboxamide], the inhibition at 1 µM in experiment [1] is -7.1%; in experiment [2], 34.2%; in [3], -2.8%; in experiment [4] it was -14.5%; in experiment [5] it was 3.5%; in [6], -10.6%. Besides, the inhibition at 1 µM in experiment [7] was 2.7%; in experiment [8], 28.1%; in experiment [9], -2.8%; in experiment [10], -28%; in experiment [11], 5.5%; in experiment [12] it was -28.2%. In addition, in experiment [13], the inhibition at 1 µM is 18.3%.

For the origin of these results see patent US20220009920A1 (GB005, Inc., priority 2020, published 2022).
